The target in one assay is T1, Jak2 (a.a. 828-1132) (Homo sapiens, UniProt O60674).
T1 construct: Jak2 (a.a. 828-1132); His tag (N); made in house; host or cells: insect cells (baculovirus)
Nature of the assay: In vitro JAK kinase assay (HTRF, phosphorylation of biotinylated peptide), JAK2. The settings on record: 1 mM ATP; Examples 12-91; read-out: JAK2 IC50 (nM) @ 1 mM ATP. Type of assay: biochemical. The essentials:
(§1)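 His-tagged catalytic domains expressed in baculovirus/insect cells; biotinylated peptide (500 nM) phosphorylation in 50 mM Tris pH 7.8, 100 mM NaCl, 5 mM DTT, 0.01% BSA, 1 h room temperature. ATP at Km (JAK1 90 μM, JAK2 30 μM) or 1 mM. EDTA stop, Eu-Py20/SA-APC HTRF read; IC50.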

Assay [1] deals with T2, human JAK1 (a.a. 837-1142) (Homo sapiens, UniProt P23458).
T2 construct: The catalytic domains of human JAK1 (a.a. 837-1142); His tag (N); made in house; host or cells: insect cells (baculovirus)
Nature of the assay: In vitro JAK kinase assay (HTRF, phosphorylation of biotinylated peptide), JAK1. Type of assay: biochemical. The note with it: 1 mM ATP; Examples 12-91; read-out: JAK1 IC50 (nM) @ 1 mM ATP. The essentials:
as §1
Background: TR-FRET usually uses a lanthanide donor and a delayed reading to cut background.

Counter-ions that a name gives are not always drawn.

Results on 20 compounds are retold here after US9249145B2, “Heterocyclic derivatives of pyrazol-4-yl-pyrrolo[2,3-d]pyrimidines as janus kinase inhibitors” (Incyte Holdings Corporation, priority 2009, dated 2016).

T2 sequence (P23458 849-1154): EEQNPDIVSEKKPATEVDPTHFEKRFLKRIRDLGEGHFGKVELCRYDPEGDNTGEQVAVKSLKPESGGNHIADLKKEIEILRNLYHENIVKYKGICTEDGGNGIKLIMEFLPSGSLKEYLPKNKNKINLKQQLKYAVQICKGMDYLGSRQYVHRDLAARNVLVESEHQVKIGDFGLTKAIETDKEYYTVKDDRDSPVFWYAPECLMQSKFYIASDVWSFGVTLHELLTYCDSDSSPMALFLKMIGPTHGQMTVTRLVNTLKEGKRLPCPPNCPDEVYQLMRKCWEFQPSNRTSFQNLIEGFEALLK
T1 sequence (O60674 828-1132): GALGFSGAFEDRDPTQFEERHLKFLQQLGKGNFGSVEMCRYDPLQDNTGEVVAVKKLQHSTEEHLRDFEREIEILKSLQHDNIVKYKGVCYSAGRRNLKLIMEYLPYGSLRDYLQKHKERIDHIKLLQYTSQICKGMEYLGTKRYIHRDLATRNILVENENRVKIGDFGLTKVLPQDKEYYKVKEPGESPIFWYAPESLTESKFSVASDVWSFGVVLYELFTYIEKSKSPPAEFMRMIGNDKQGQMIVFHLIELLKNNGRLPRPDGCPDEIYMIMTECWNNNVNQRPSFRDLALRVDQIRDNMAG

The IC50 is the concentration at which inhibition is half-maximal. Take `Cc1cc(F)ccc1C(=O)N1CCN(CC(CC#N)n2cc(-c3ncnc4[nH]ccc34)cn2)CC1` (stereo not shown) [Example 47, 3-(4-(7H-pyrrolo[2,3-d]pyrimidin-4-yl)-1H-pyrazol-1-yl)-4-(4-(4-fluoro-2-methylbenzoyl)piperazin-1-yl)butanenitrile]: the values for the half-maximal inhibitory concentration (IC50) (on Jak2 (a.a. 828-1132); in assay [1]) were 10 to 50 nM and below 10 nM, respectively.

Turning to `N#CCC(CN1CCN(C(=O)c2ccc(F)c(F)c2F)CC1)n1cc(-c2ncnc3[nH]ccc23)cn1` (stereo not shown) [Example 48, 3-(4-(7H-pyrrolo[2,3-d]pyrimidin-4-yl)-1H-pyrazol-1-yl)-4-(4-(2,3,4-trifluorobenzoyl)piperazin-1-yl)butanenitrile phosphate salt], the IC50 at Jak2 (a.a. 828-1132) was 10 to 50 nM; in assay [1] it was below 10 nM.

For `N#CCC(CN1CCN(C(=O)c2ccc(F)c(OC(F)(F)F)c2)CC1)n1cc(-c2ncnc3[nH]ccc23)cn1` (stereo not shown) [Example 49, 3-(4-(7H-pyrrolo[2,3-d]pyrimidin-4-yl)-1H-pyrazol-1-yl)-4-(4,-(4-fluoro-3-(trifluoromethoxy)benzoyl)piperazin-1-yl)butanenitrile], the IC50 on Jak2 (a.a. 828-1132) is above 100 nM; in assay [1] it was 10 to 50 nM.

As to `N#CCC(CN1CCN(C(=O)c2ccc(F)c(F)c2)CC1)n1cc(-c2ncnc3[nH]ccc23)cn1` (stereo not shown) [Example 50, 3-(4-(7H-pyrrolo[2,3-d]pyrimidin-4-yl)-1H-pyrazol-1-yl)-4-(4-(3,4-difluorobenzoyl)piperazin-1-yl)butanenitrile], the concentration for half-maximal inhibition (IC50) (at Jak2 (a.a. 828-1132); in assay [1]) was 10 to 50 nM throughout.

For `N#CCC(CN1CCN(C(=O)c2cccc(OC(F)(F)F)c2F)CC1)n1cc(-c2ncnc3[nH]ccc23)cn1` (stereo not shown) [Example 51, 3-(4-(7H-pyrrolo[2,3-d]pyrimidin-4-yl)1H-pyrazol-1-yl)-4-(4-(2-fluoro-3-(trifluoromethoxy)benzoyl)piperazin-1-yl)butanenitrile], the IC50 (at Jak2 (a.a. 828-1132); in assay [1]) was 10 to 50 nM each time.

As to `COc1cscc1C(=O)N1CCN(CC(CC#N)n2cc(-c3ncnc4[nH]ccc34)cn2)CC1` (stereo not shown) [Example 52, 3-(4-(7H-pyrrolo[2,3-d]pyrimidin-4-yl)-1H-pyrazol-1-yl)-4-(4-(4-methoxythiophene-3-carbonyl)piperazin-1-yl)butanenitrile], the values for the IC50 (at Jak2 (a.a. 828-1132); in assay [1]) were 50 to 100 nM and 10 to 50 nM, respectively.

In the case of `N#CCC(CN1CCN(C(=O)c2cc(Cl)cc(OC(F)(F)F)c2)CC1)n1cc(-c2ncnc3[nH]ccc23)cn1` (stereo not shown) [Example 53, 3-(4-(7H-pyrrolo[2,3-d]pyrimidin-4-yl)-1H-pyrazol-1-yl)-4-(4-(3-chloro-5-(trifluoromethoxy)benzoyl)piperazin-1-yl)butanenitrile], the IC50 was in the range of 50 to 100 nM at Jak2 (a.a. 828-1132) and 10 to 50 nM in assay [1].

As to `N#CCC(CN1CCN(C(=O)c2ccc(O)c(Cl)c2)CC1)n1cc(-c2ncnc3[nH]ccc23)cn1` (stereo not shown) [Example 54, 3-(4-(7H-pyrrolo[2,3-d]pyrimidin-4-yl)-1H-pyrazol-1-yl)-4-(4-(3-chloro-4-hydroxybenzoyl)piperazin-1-yl)butanenitrile trifluoroacetate salt], the IC50 on Jak2 (a.a. 828-1132) fell in the range of 50 to 100 nM; in assay [1], 10 to 50 nM.

As to `COc1c(F)cc(C(=O)N2CCN(CC(CC#N)n3cc(-c4ncnc5[nH]ccc45)cn3)CC2)cc1F` (stereo not shown) [Example 55, 3-(4-(7H-pyrrolo[2,3-d]pyrimidin-4-yl)-1H-pyrazol-1-yl)-4-(4-(3,5-difluoro-4-methoxybenzoyl)piperazin-1-yl)butanenitrile], the IC50 lay in the range of 50 to 100 nM on Jak2 (a.a. 828-1132) and 10 to 50 nM in assay [1].

Consider `N#CCC(CN1CCN(C(=O)c2ccc(C(F)(F)F)c(F)c2)CC1)n1cc(-c2ncnc3[nH]ccc23)cn1` (stereo not shown) [Example 56, 3-(4-(7H-pyrrolo[2,3-d]pyrimidin-4-yl)-1H-pyrazol-1-yl)-4-(4-(3-fluoro-4-(trifluoromethyl)benzoyl)piperazin-1-yl)butanenitrile], for which the half-maximal inhibitory concentration (IC50) is above 100 nM on Jak2 (a.a. 828-1132) and 10 to 50 nM in assay [1].

As to `N#CCC(CN1CCN(C(=O)c2ccc(F)c(C(F)(F)F)c2)CC1)n1cc(-c2ncnc3[nH]ccc23)cn1` (stereo not shown) [Example 57, 3-(4-(7H-pyrrolo[2,3-d]pyrimidin-4-yl)-1H-pyrazol-1-yl)-4-(4-(4-fluoro-3-(trifluoromethyl)benzoyl)piperazin-1-yl)butanenitrile], the results for the concentration for half-maximal inhibition (IC50) (at Jak2 (a.a. 828-1132); in assay [1]) were above 100 nM and 10 to 50 nM, respectively.

With `N#CCC(CN1CCN(C(=O)c2ccccn2)CC1)n1cc(-c2ncnc3[nH]ccc23)cn1` (stereo not shown) [Example 58, 3-(4-(7H-pyrrolo[2,3-d]pyrimidin-4-yl)-1H-pyrazol-1-yl)-4-(4-picolinoylpiperazin-1-yl)butanenitrile], the results for the IC50 (at Jak2 (a.a. 828-1132); in assay [1]) were above 100 nM and 10 to 50 nM, respectively.

`N#CCC(CN1CCN(C(=O)c2ccc(F)cc2C(F)(F)F)CC1)n1cc(-c2ncnc3[nH]ccc23)cn1` (stereo not shown) [Example 59]: the IC50 on Jak2 (a.a. 828-1132) is above 100 nM; in assay [1] it was 10 to 50 nM.

Regarding `N#CCC(CN1CCN(S(=O)(=O)c2ccccc2C#N)CC1)n1cc(-c2ncnc3[nH]ccc23)cn1` (stereo not shown) [Example 60, 2-(4-(2-(4-(7H-pyrrolo[2,3-d]pyrimidin-4-yl)-1H-pyrazol-1-yl)-3-cyanopropyl)piperazin-1-ylsulfonyl)benzonitrile], the IC50 (at Jak2 (a.a. 828-1132); in assay [1]) was below 10 nM in each case.

For the compound `N#CCC(CN1CCN(S(=O)(=O)c2cc(F)cc(F)c2)CC1)n1cc(-c2ncnc3[nH]ccc23)cn1` (stereo not shown) [Example 61, 3-(4-(7H-pyrrolo[2,3-d]pyrimidin-4-yl)-1H-pyrazol-1-yl)-4-(4-(3,5-difluorophenylsulfonyl)piperazin-1-yl)butanenitrile trifluoroacetate salt], the IC50 (at Jak2 (a.a. 828-1132); in assay [1]) was below 10 nM in each case.

As to `N#CCC(CN1CCN(S(=O)(=O)c2cc(F)ccc2F)CC1)n1cc(-c2ncnc3[nH]ccc23)cn1` (stereo not shown) [Example 62, 3-(4-(7H-pyrrolo[2,3-d]pyrimidin-4-yl)-1H-pyrazol-1-yl)-4-(4-(2,5-difluorophenylsulfonyl)piperazin-1-yl)butanenitrile trifluoroacetate salt], the IC50 (on Jak2 (a.a. 828-1132); in assay [1]) was below 10 nM each time.

For the compound `Cc1ccc(S(=O)(=O)N2CCN(CC(CC#N)n3cc(-c4ncnc5[nH]ccc45)cn3)CC2)nc1` (stereo not shown) [Example 63, 3-(4-(7H-pyrrolo[2,3-d]pyrimidin-4-yl)-1H-pyrazol-1-yl)-4-(4-(5-methylpyridin-2-ylsulfonyl)piperazin-1-yl)butanenitrile], the IC50 (at Jak2 (a.a. 828-1132); in assay [1]) was below 10 nM each time.

On to `Cc1cccc(S(=O)(=O)N2CCN(CC(CC#N)n3cc(-c4ncnc5[nH]ccc45)cn3)CC2)n1` (stereo not shown) [Example 64, 3-(4-(7H-pyrrolo[2,3-d]pyrimidin-4-yl)-1H-pyrazol-1-yl)-4-(4-(6-methylpyridin-2-ylsulfonyl)piperazin-1-yl)butanenitrile], for which the IC50 (at Jak2 (a.a. 828-1132); in assay [1]) was below 10 nM each time.

Turning to `N#CCC(CN1CCN(S(=O)(=O)c2cccnc2)CC1)n1cc(-c2ncnc3[nH]ccc23)cn1` (stereo not shown) [Example 65, 3-(4-(7H-pyrrolo[2,3-d]pyrimidin-4-yl)-1H-pyrazol-1-yl)-4-(4-(pyridin-3-ylsulfonyl)piperazin-1-yl)butanenitrile], the values for the half-inhibitory concentration (IC50) (at Jak2 (a.a. 828-1132); in assay [1]) were 10 to 50 nM and below 10 nM, respectively.

Consider `N#CCC(CN1CCN(S(=O)(=O)c2ccccc2C(F)(F)F)CC1)n1cc(-c2ncnc3[nH]ccc23)cn1` (stereo not shown) [Example 66, 3-(4-(7H-pyrrolo[2,3-d]pyrimidin-4-yl)-1H-pyrazol-1-yl)-4-(4-(2-(trifluoromethyl)phenylsulfonyl)piperazin-1-yl)butanenitrile], for which the IC50 (at Jak2 (a.a. 828-1132); in assay [1]) was below 10 nM throughout.
